Results reported in US4943636A, “Certain pyridyl-di-sulfide-alkylenecarbonxylate-ortho-nitro-phenylsulfonic acid esters useful for coupling biological materials” (Cetus Corporation, priority 1987, dated 1990).
Where two headings read alike, the source gives them in different places.

Experiments:
[1] = Solubility in water / physical properties; type: physicochemical
[2] = test system: bovine serum albumin; conditions: pH 8.5; compared with same ester of N-hydroxysuccinimide; cited from earlier work
[3] = prior-art agents; cited from earlier work
[4] = pH 7.4; cited from earlier work
[5] = test system: polylysine
Description: A total of 25 mg (0.34 μmoles) of polylysine obtained from Sigma Chemical Co. (Sigma) was succinylated to approximately 20 amines remaining unsuccinylated per polylysine molecule, and redissolved in 0.5 ml of 0.1 M phosphate buffer at pH 7.4 to yield an amine concentration of 1.0×10^-2 M. Five mg (1.0×10^-5 moles) of the biotin HNSA ester was dissolved in 0.5 ml of the polylysine solution. The mixture was stirred at room temperature to initiate reaction. Ten μl aliquots were removed from the incubating solution at timed intervals and were each diluted into 1.0 ml of 0.01 M phosphate buffer at pH 7.0. The spectrum of each diluted aliquot was measured and the absorbance at 406 nm recorded.

[6] = test system: cells; conditions: reacted with fluoresceinated avidin; compared with biotin-p-nitrophenyl ester; cited from earlier work
[7] = test system: sheep red blood cells (SRBC); experiment: Labelling of sheep red blood cells, cytofluorometry; type: cell-based; conditions: excitation at 360 nm
Description: Dansyl-sac-HNSA ester was prepared as described in Example 1A using molar equivalents of HNSA, dicyclohexylcarbodiimide and dansyl-ε-aminocaproic acid (from Sigma Chemicals). For use in coupling to sheep red blood cells (SRBC) the dansyl-sac-HNSA ester (50 mg) was prepared in 7 ml of 0.28 M cacodylate buffer, pH 6.9.
Sheep red blood cells were washed 4 times (400×g, 8 minutes) in G-PBS buffer (5% α-D-glucose w/v in PBSCa-Mg). To 1 ml of packed red blood cells was added the 7 ml of dansyl-sac-HNSA ester dropwise with gentle mixing for 10 minutes at room temperature. The reaction was done in foil-wrapped glassware to protect against photodecomposition. Following the reaction the cells were washed in cold G-PBS buffer containing 1% heat inactivated (56° C., 30 minutes) FCS (fetal calf serum) until the supernatants were colorless (a minimum of 4 washes).
The dansyl-sac-HNSA labelled SRBC were monitored using a Coulter EPICS V Cytofluorometer immediately after labeling and at 24 hours. […] This translates to an increase in intensity 720 times over unlabeled cells.

[8] = test system: bovine serum albumin (BSA); conditions: for Percent Ester Remaining in Solution: pH 7.5, room temperature
Description: (§1) About 0.5 mg of the purified mal-sac HNSA ester from Example 1A was dissolved in 1 ml of distilled water.
The difference between the post-base and initial free HNSA concentration represents the concentration of ester. From the actual concentration of ester the amount of ester to be added to the protein solution to achieve the desired degree of substitution can be calculated.
A total of 22 mg ([…]) of BSA (of molecular weight 66,296) was dissolved in 2.0 ml of 0.01 M phosphate buffer at pH 7.5 to yield a total amino concentration of 1.0×10^-2 moles per liter (assuming 59 lysines/BSA molecule). […] The reaction was carried out at room temperature. […]

[9] = test system: streptavidin; set-up: species or system Streptomyces avidinii
Description: A total of 0.26 mg (4.3×10^-3 μmoles) of streptavidin purified from Streptomyces avidinii by the method of Hoffman et al., PNAS, 77, 4666-4668 (1980) was dissolved in 1.0 ml of phosphate buffered saline at pH 7.4 to yield a total amine concentration of 6.93×10^-5 M (16 NH2 /streptavidin). […] Good separation was achieved between the protein and the excess HNSA and unreacted HNSA ester. […] In this case […] of the amino groups on streptavidin (12.9 out of 16.0) reacted.

[10] = test system: biotinylated polylysine; conditions: over a 30 minute period; pH 7.4
Description: Biotinylated polylysine (0.6 ml; 73,000 D average mol. wt.) was adjusted to pH 7.4 with 0.015 ml of 2.5 N NaOH. Approximately 5 mg of mal-sac-HNSA was added to the biotinylated polylysine and stirred at room temperature. Ten μl aliquots were removed from the mixture at timed intervals and diluted into 1.0 ml of 0.01 M phosphate buffer at pH 7.0. The spectrum of each diluted aliquot was measured and the absorbance at 406 nm recorded. A total of 50 μl of 4.8 N NaOH solution was then added to each aliquot, mixed, and the spectrum retaken.
After 30 minutes of incubation time, the reaction was stopped using a Sephadex G-25 column, and the high molecular weight (biotin)4 -polylysine-(sac-mal)18 was well separated from excess HNSA and unreacted mal-sac-HNSA.

[11] = Stability in water; type: physicochemical; conditions: no nucleophiles added
[12] = Storage stability; type: physicochemical; conditions: purified ester, stored desiccated
[13] = Hydrolysis of ester by sodium hydroxide; type: physicochemical; conditions: 4.8 N sodium hydroxide added, pH 7.0 phosphate buffer aliquot
Description: as §1

[14] = test system: avidin; conditions: for Percent Ester Remaining: room temperature
Description: A total of 220 μl of an aqueous solution of 4.65 mg of avidin per ml of solution (27 amino groups per avidin molecule) was charged to a siliconized glass tube with a stir bar. Approximately 1.5 mg of the mal-sac HNSA ester of Example 1A (of 88.5% purity), calculated from the data of Example 2A, was added and the mixture stirred at room temperature. Ten μl aliquots of the mixture were removed and added to 1.0 ml of 10 mM phosphate buffer at pH 7.0 at timed intervals. The spectrum of each aliquot was taken and then 50 μl of 4.8 N NaOH solution was added to each aliquot and the spectrum was retaken.

[15] = test system: Horseradish Peroxidase (HRP); conditions: over a 30 minute period; pH 7.0
Description: A total of 40 mg (1.0 μmoles) of HRP (Sigma Chemical Co.) was dissolved in 0.5 ml of 0.1 M phosphate buffer at pH 7.0 to yield an amine concentration of 3.7×10^-3 M. Then, 5 mg (1.1×10^-5 moles) of the mal-sac HNSA ester of Example 1A, calculated from the data in Example 2A, was dissolved in 0.5 ml of the HRP solution. The mixture was stirred at room temperature. Five μl aliquots were removed from the incubating solution at timed intervals and were each diluted into 1.0 ml of 0.01 M sodium phosphate buffer at pH 7.0. The spectrum of each diluted aliguot was recorded and the absorbance at 406 nm measured. A total of 50 μl of 4.8 N NaOH was then added to each aliquot, each aliquot was mixed and its spectrum retaken and the absorbance at 406 nm measured. Because HRP has an absorbance at 406 nm due to its heme group and this absorbance changes after addition of sodium hydroxide, corrections for the absorbances due to the HRP were made on every dilution.
After 30 minutes the reaction was stopped using a Sephadex G-25 column as described in Example 2A. Fractions were collected and measured for absorbance at 406 nm and 280 nm.

O=C(CCSSc1ccccn1)Oc1ccc(S(=O)(=O)O)cc1[N+](=O)[O-] [3-(2-pyridyldithio)propionyl-HNSA, 3-(2-pyridyldithio)propionyl-HNSA ester]
physical properties relative to mal-sac HNSA ester [1]: essentially the same properties

O=C(CCCCCNc1ccc([N+](=O)[O-])cc1[N+](=O)[O-])Oc1ccc(S(=O)(=O)O)cc1[N+](=O)[O-] [N-2,4-dinitrophenyl-6-aminocaproic acid ester of HNSA]
efficiency in conjugating to bovine serum albumin [2]: more efficient

O=C(CCSSc1ccccn1)ON1C(=O)CCC1=O [SPDP, N-succinimidyl-3-(2-pyridyldithio)propionate]
water solubility [3]: lack of water solubility

O=C(CNC(=O)OCc1ccccc1)Oc1ccc(S(=O)(=O)O)cc1[N+](=O)[O-] [Z-gly-HNSA, N-benzyloxycarbonyl-gly-HNSA]
rate of aminolysis by glycine relative to hydrolysis rate [4]: considerably higher than its hydrolysis rate

O=C1N[C@H]2[C@H](CS[C@H]2CCCCC(=O)Oc2ccc(S(=O)(=O)O)cc2[N+](=O)[O-])N1 [biotin-HNSA]
amino groups of the polylysine polypeptide reacted ([5]; 7 minutes): 28% | reaction rate ([5]; over a 5 minute period, pH 7.4): essentially linear | physical properties relative to mal-sac HNSA ester [1]: essentially the same physical properties | increase in fluorescence of treated cells [6]: much larger increase in fluorescence

CN(C)c1cccc2c(S(=O)(=O)NCCCCCC(=O)Oc3ccc(S(=O)(=O)O)cc3[N+](=O)[O-])cccc12 [dansyl-sac-HNSA]
increase in intensity over unlabeled cells [7]: 720 times

O=C(CCCCCN1C(=O)C=CC1=O)Oc1ccc(S(=O)(=O)O)cc1[N+](=O)[O-] [mal-sac-HNSA, N-maleimido-6-aminocaproyl-HNSA]
Concentration of Ester ([8]; 0 minutes): 0.000156 mol/L | Percent Ester Remaining in Solution ([8]; 0 minutes): 94.0% | Concentration of Ester ([8]; 5 minutes): 0.000116 mol/L | Percent Ester Remaining in Solution ([8]; 5 minutes): 82.9% | Concentration of Ester ([8]; 9 minutes): 0.000103 mol/L | Percent Ester Remaining in Solution ([8]; 9 minutes): 78.3% | Concentration of Ester ([8]; 14 minutes): 0.000111 mol/L | Percent Ester Remaining in Solution ([8]; 14 minutes): 74.5% | ester reacted ([8]; 15 minutes): 0.0026 mol/L | ε-amino groups of BSA substituted ([8]; 15 minutes, of 59 ε-amino groups): 25.9% | Concentration of HNSA ([8]; With NaOH, 0 minutes): 0.000166 mol/L | Concentration of HNSA ([8]; With NaOH, 5 minutes): 0.00014 mol/L | Concentration of HNSA ([8]; With NaOH, 9 minutes): 0.000132 mol/L | Concentration of HNSA ([8]; With NaOH, 14 minutes): 0.000149 mol/L | Concentration of HNSA ([8]; Without NaOH, 0 minutes): 1.03e-05 mol/L | Concentration of HNSA ([8]; Without NaOH, 5 minutes): 2.44e-05 mol/L | Concentration of HNSA ([8]; Without NaOH, 9 minutes): 2.87e-05 mol/L | Concentration of HNSA ([8]; Without NaOH, 14 minutes): 3.77e-05 mol/L | reaction rate ([8]; over a 15 minute period): essentially linear | amino groups on streptavidin reacted ([9]; 20 minutes): 79% | number of amino groups on streptavidin reacted ([9]; 20 minutes, out of 16.0): 12.9 | reaction rate ([9]; over the period measured, pH 7.4): essentially linear | reaction rate [10]: essentially linear | solubility in water [1]: dissolve fully in water | stability in water [11]: stable in water for several hours | storage stability [12]: stable for extended periods | hydrolysis by hydroxide [13]: rapidly hydrolyzed | Percent Ester Remaining ([14]; 0 minutes): 89% | Percent Ester Remaining ([14]; 5 minutes): 86% | Percent Ester Remaining ([14]; 20 minutes): 78% | amino groups of avidin reacted ([14]; 30 minutes, 27 amino groups per avidin molecule): 13.5 amino groups | Percent Ester Remaining ([14]; 30 minutes): 73% | reaction rate ([14]; FIG. 3): linear | reaction rate [15]: essentially linear

mal-sac-BSA: product of the first reaction of mal-sac-HNSA ester with bovine serum albumin
mal-sac groups per molecule ([8]; 15 minutes): 16 mal-sac groups per molecule
